Test results reported in patent publication US12180187B2, “1-phenyl-5-azinylpyrazolyl-3-oxyalkyl acids and their use for controlling unwanted plant growth” (BAYER AKTIENGESELLSCHAFT, priority 2019, dated 2024).

How the values were obtained:
ECHCG [1] = assay: Pre-emergence action against ECHCG, 1280 g/ha; assay type: in vivo, Echinochloa crus-galli; conditions: visual scoring after about 3 weeks vs untreated controls, 100% = plants have died, 0% = like control plants
Summary of the method: (§1)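 In greenhouse pots of sandy loam, sown weed seeds were covered with soil and treated pre-emergence with the compound in water (600 L/ha, 0.5% additive). Efficacy was assessed visually as percent of untreated control after about 3 weeks.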

AMARE [2] = assay: Pre-emergence action against AMARE, 1280 g/ha; assay type: in vivo, Amaranthus retroflexus; conditions: scored visually after about 3 weeks vs untreated controls (100% = plants have died)
Summary of the method: as §1

ECHCG [3] = assay: Post-emergence action at 320 g/ha against ECHCG; assay type: in vivo, Echinochloa crus-galli; conditions: dosage 320 g/ha, visual rating about 3 weeks after treatment vs untreated controls (100% = plants died)
Excerpt: (§2) Accordingly, the compounds of the invention have good herbicidal action against a broad spectrum of weed grasses and broad-leaved weeds and are therefore suitable for controlling unwanted vegetation by the post-emergence method. • b) Seeds of monocotyledonous and dicotyledonous weeds and crop plants are placed in sandy loam in plastic or organic planting pots, covered with soil and cultivated in a greenhouse under controlled growth conditions. 2 to 3 weeks after sowing, the test plants are treated at the one-leaf stage. The compounds of the invention, formulated in the form of wettable powders (WP) or as emulsion concentrates (EC), are then sprayed onto the green parts of the plants as aqueous suspension or emulsion with addition of 0.5% additive at a water application rate of 600 l/ha (converted). After the test plants have been kept in the greenhouse under optimum growth conditions for about 3 weeks, the activity of the preparations is rated visually in comparison to untreated controls. For example, 100% activity=the plants have died, 0% activity=like control plants. Tables 39 to 49 below show the effects of selected compounds of the general formula (I) according to Tables 1 and 2 on various harmful plants and at an application rate corresponding to 320 g/ha, which were obtained by the experimental procedure mentioned above.

POLCO [4] = assay: Pre-emergence action at 320 g/ha against POLCO; assay type: in vivo, Fallopia convolvulus (Polygonum convolvulus); conditions: visual scoring after about 3 weeks vs untreated controls
Summary of the method: (§3)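 Greenhouse pot trial in which formulated compound (wettable powder or emulsion concentrate) goes onto the soil surface right after sowing, at a spray volume of 600 l/ha including 0.5% additive. Effects are judged visually after about 3 weeks (0% = like control, 100% = dead).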

SETVI [5] = assay: Post-emergence action against SETVI, 1.28 kg/ha; assay type: in vivo, Setaria viridis; conditions: dosage 1280 g/ha, visual rating about 3 weeks after treatment vs untreated controls
Summary of the method: (§4)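 Foliar application at the one-leaf stage: compound as WP or EC in water with 0.5% additive, sprayed at 600 L/ha. Plants are kept about 3 weeks in the greenhouse, then % herbicidal action is estimated visually (100% = death).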

LOLRI [6] = assay: Pre-emergence action against LOLRI, 1280 g/ha; assay type: in vivo, Lolium rigidum; conditions: visual scoring after about 3 weeks vs untreated controls, 100% = plants have died, 0% = like control plants
Summary of the method: as §1

AVEFA [7] = assay: Pre-emergence action at 320 g/ha against AVEFA; assay type: in vivo; conditions: visual scoring after about 3 weeks vs untreated controls
Summary of the method: as §3

MATIN [8] = assay: Post-emergence action against MATIN, 1.28 kg/ha; assay type: in vivo, Tripleurospermum inodorum (Matricaria inodora); conditions: dosage 1280 g/ha, visual rating about 3 weeks after treatment vs untreated controls (100% = plants died)
Summary of the method: as §4

SETVI [9] = assay: Post-emergence action at 320 g/ha against SETVI; assay type: in vivo, Setaria viridis; conditions: visual rating about 3 weeks after treatment vs untreated controls
Excerpt: as §2

ECHCG [10] = assay: Post-emergence action against ECHCG, 1.28 kg/ha; assay type: in vivo, Echinochloa crus-galli; conditions: dosage 1280 g/ha, visual rating about 3 weeks after treatment vs untreated controls
Summary of the method: as §4

VERPE [11] = assay: Pre-emergence action at 320 g/ha against VERPE; assay type: in vivo, Veronica persica; conditions: visual scoring after about 3 weeks vs untreated controls
Summary of the method: as §3

STEME [12] = assay: Pre-emergence action against STEME, 1280 g/ha; assay type: in vivo, Stellaria media; conditions: scored visually after about 3 weeks vs untreated controls (100% = plants have died)
Summary of the method: as §1

ALOMY [13] = assay: Post-emergence action against ALOMY, 320 g/ha; assay type: in vivo, Alopecurus myosuroides; conditions: dosage 320 g/ha, visual rating about 3 weeks after treatment vs untreated controls (100% = plants died)
Excerpt: as §2

DIGSA [14] = assay: Pre-emergence action against DIGSA, 1280 g/ha; assay type: in vivo, Digitaria sanguinalis; conditions: visual scoring after about 3 weeks vs untreated controls, 100% = plants have died, 0% = like control plants
Summary of the method: as §1

ALOMY [15] = assay: Post-emergence action against ALOMY, 1.28 kg/ha; assay type: in vivo, Alopecurus myosuroides; conditions: dosage 1280 g/ha, visual rating about 3 weeks after treatment vs untreated controls
Summary of the method: as §4

LOLRI [16] = assay: Post-emergence action against LOLRI, 1.28 kg/ha; assay type: in vivo, Lolium rigidum; conditions: dosage 1280 g/ha, visual rating about 3 weeks after treatment vs untreated controls
Summary of the method: as §4

POAAN [17] = assay: Pre-emergence action against POAAN, 1280 g/ha; assay type: in vivo, Poa annua; conditions: visual scoring after about 3 weeks vs untreated controls, 100% = plants have died, 0% = like control plants
Summary of the method: as §1

VIOTR [18] = assay: Pre-emergence action at 320 g/ha against VIOTR; assay type: in vivo, Viola tricolor; conditions: dosage 320 g/ha
Summary of the method: as §3

ALOMY [19] = assay: Pre-emergence action against ALOMY, 1280 g/ha; assay type: in vivo, Alopecurus myosuroides; conditions: visual scoring after about 3 weeks vs untreated controls, 100% = plants have died, 0% = like control plants
Summary of the method: as §1

DIGSA [20] = assay: Pre-emergence action at 320 g/ha against DIGSA; assay type: in vivo, Digitaria sanguinalis; conditions: visual scoring after about 3 weeks vs untreated controls
Summary of the method: as §3

ABUTH = assay: Post-emergence action against ABUTH, 1.28 kg/ha; assay type: in vivo, Abutilon theophrasti; conditions: dosage 1280 g/ha, visual rating about 3 weeks after treatment vs untreated controls (100% = plants died)
Summary of the method: as §4

AMARE [21] = assay: Post-emergence action against AMARE, 1.28 kg/ha; assay type: in vivo, Amaranthus retroflexus; conditions: dosage 1280 g/ha, visual rating about 3 weeks after treatment vs untreated controls (100% = plants died)
Summary of the method: as §4

ALOMY [22] = assay: Pre-emergence action at 320 g/ha against ALOMY; assay type: in vivo, Alopecurus myosuroides; conditions: scored visually after about 3 weeks vs untreated controls (100% = plants have died)
Summary of the method: as §3

MATIN [23] = assay: Pre-emergence action at 320 g/ha against MATIN; assay type: in vivo, Tripleurospermum inodorum (Matricaria inodora); conditions: visual scoring after about 3 weeks vs untreated controls
Summary of the method: as §3

AMARE [24] = assay: Pre-emergence action at 320 g/ha against AMARE; assay type: in vivo, Amaranthus retroflexus; conditions: visual scoring after about 3 weeks vs untreated controls
Summary of the method: as §3

VERPE [25] = assay: Pre-emergence action against VERPE, 1280 g/ha; assay type: in vivo, Veronica persica; conditions: scored visually after about 3 weeks vs untreated controls (100% = plants have died)
Summary of the method: as §1

DIGSA [26] = assay: Post-emergence action against DIGSA, 1.28 kg/ha; assay type: in vivo, Digitaria sanguinalis; conditions: dosage 1280 g/ha, visual rating about 3 weeks after treatment vs untreated controls
Summary of the method: as §4

VERPE [27] = assay: Post-emergence action against VERPE, 1.28 kg/ha; assay type: in vivo, Veronica persica; conditions: dosage 1280 g/ha, visual rating about 3 weeks after treatment vs untreated controls (100% = plants died)
Summary of the method: as §4

MATIN [28] = assay: Pre-emergence action against MATIN, 1280 g/ha; assay type: in vivo, Tripleurospermum inodorum (Matricaria inodora); conditions: scored visually after about 3 weeks vs untreated controls (100% = plants have died)
Summary of the method: as §1

SETVI [29] = assay: Pre-emergence action against SETVI, 1280 g/ha; assay type: in vivo, Setaria viridis; conditions: visual scoring after about 3 weeks vs untreated controls, 100% = plants have died, 0% = like control plants
Summary of the method: as §1

LOLRI [30] = assay: Pre-emergence action at 320 g/ha against LOLRI; assay type: in vivo, Lolium rigidum; conditions: visual scoring after about 3 weeks vs untreated controls
Summary of the method: as §3

POAAN [31] = assay: Post-emergence action against POAAN, 1.28 kg/ha; assay type: in vivo, Poa annua; conditions: dosage 1280 g/ha, visual rating about 3 weeks after treatment vs untreated controls
Summary of the method: as §4

AMARE [32] = assay: Post-emergence action at 320 g/ha against AMARE; assay type: in vivo, Amaranthus retroflexus; conditions: visual rating about 3 weeks after treatment vs untreated controls
Excerpt: as §2

POLCO [33] = assay: Post-emergence action at 320 g/ha against POLCO; assay type: in vivo, Fallopia convolvulus (Polygonum convolvulus); conditions: visual rating about 3 weeks after treatment vs untreated controls
Excerpt: as §2

SETVI [34] = assay: Pre-emergence action at 320 g/ha against SETVI; assay type: in vivo, Setaria viridis; conditions: visual scoring after about 3 weeks vs untreated controls
Summary of the method: as §3

STEME [35] = assay: Post-emergence action against STEME, 1.28 kg/ha; assay type: in vivo, Stellaria media; conditions: dosage 1280 g/ha, visual rating about 3 weeks after treatment vs untreated controls (100% = plants died)
Summary of the method: as §4

AVEFA [36] = assay: Post-emergence action at 320 g/ha against AVEFA; assay type: in vivo; conditions: visual rating about 3 weeks after treatment vs untreated controls
Excerpt: as §2

VIOTR [37] = assay: Post-emergence action at 320 g/ha against VIOTR; assay type: in vivo, Viola tricolor; conditions: visual rating about 3 weeks after treatment vs untreated controls
Excerpt: as §2

Row | SMILES | Pre-emergence action against ECHCG (ECHCG [1]) [%] | Pre-emergence action against AMARE (AMARE [2]) [%] | Pre-emergence action against POLCO in % (POLCO [4]) [%] | Post-emergence action against SETVI (SETVI [5]) [%] | Pre-emergence action against LOLRI (LOLRI [6]) [%] | Post-emergence action against MATIN (MATIN [8]) [%] | Post-emergence action against ECHCG (ECHCG [10]) [%] | Pre-emergence action against VERPE in % (VERPE [11]) [%] | Pre-emergence action against STEME (STEME [12]) [%] | Post-emergence action against ALOMY (ALOMY [13]) [%] | Post-emergence action against LOLRI (LOLRI [16]) [%] | Pre-emergence action against POAAN (POAAN [17]) [%] | Pre-emergence action against VIOTR in % (VIOTR [18]) [%] | Pre-emergence action against DIGSA in % (DIGSA [20]) [%] | Post-emergence action against AMARE (AMARE [21]) [%] | Pre-emergence action at 320 g/ha against ALOMY in % (ALOMY [22]) [%] | Pre-emergence action against AMARE in % (AMARE [24]) [%] | Pre-emergence action against VERPE (VERPE [25]) [%] | Post-emergence action against VERPE (VERPE [27]) [%] | Pre-emergence action against MATIN (MATIN [28]) [%] | other results
1 | CCOC(=O)COc1nn(-c2ccccc2C)c(-c2ccc(F)nc2)c1Br [VII-056-a] | 100 | 100 | 90 | 100 | 90 | 100 | 100 | 100 | 100 | 90 | 100 | 100 | 100 | 100 | 100 | 100 | 100 | 100 | 100 | 100 | Post-emergence action at 320 g/ha against ECHCG in % (ECHCG [3]): 80%; Pre-emergence action against AVEFA in % (AVEFA [7]): 90%; Post-emergence action against SETVI in % (SETVI [9]): 80%; Pre-emergence action against DIGSA (DIGSA [14]): 100%; Post-emergence action against ALOMY (ALOMY [15]): 100%; Pre-emergence action against ALOMY (ALOMY [19]): 90%; Post-emergence action against ABUTH (ABUTH): 90%; Pre-emergence action against MATIN in % (MATIN [23]): 80%; Post-emergence action against DIGSA (DIGSA [26]): 100%; Pre-emergence action against SETVI (SETVI [29]): 100%; Pre-emergence action against LOLRI in % (LOLRI [30]): 90%; Post-emergence action against POAAN (POAAN [31]): 100%
2 | CCOC(=O)COc1nn(-c2ccccc2F)c(-c2ccnc(F)c2)c1Br [VIII-002] | 100 | 100 | 90 | 90 | 100 | 90 | 100 | 80 | 90 | 90 | 100 | 100 | 100 | 100 | 100 | 90 | 100 | 90 | 90 | 100 | Post-emergence action against AMARE in % (AMARE [32]): 80%; Post-emergence action against POLCO in % (POLCO [33]): 80%; Pre-emergence action against SETVI in % (SETVI [34]): 100%; Post-emergence action against STEME (STEME [35]): 100%; Post-emergence action against AVEFA in % (AVEFA [36]): 90%; Post-emergence action against VIOTR in % (VIOTR [37]): 80%; Pre-emergence action against SETVI (SETVI [29]): 100%; Post-emergence action against POAAN (POAAN [31]): 100%
